Measurements: US20260007717A1, “ANTIMICROBIAL PEPTIDE COMPOUNDS AND METHODS OF USE” (priority 2022, published 2026)
In brackets after ≈: the same amount, converted by molar mass. Read-outs that look alike come from different tables or passages of the source. Positions of bridges follow the written chain, without caps; N, C: chain ends. Non-standard residues stand in square brackets, D forms with d. Residues, ends and D or L forms follow the SMILES beside them. *: point of attachment. Picolinoyl = O=C(c1ccccn1)*; Aib = CC(C)(N)C(=O)O

Key:
[1] = tested on: A. baumannii; conditions: cited from earlier work
[2] = tested on: E. coli; type: cell-based
[3] = tested on: L. salivarius; type: cell-based
Method: (§1) Briefly, P. gingivalis is grown under anaerobic conditions to mid-log phase as per Dominy et al. […] The microtiter plate method outlined by Jansen (ibid) was used to measure MICs. Compounds and bacteria are added to wells of a microtiter plate and grown anaerobically (P. gingivalis) or with CO2 (L. salivarius) for 24 to 72 hours. Growth is measured with light scattering at 592 nm on a plate reader and absorbance plotted against μg/ml of drug in each well.

[4] = tested on: P. gingivalis; type: cell-based
Method: as §1

[5] = tested on: A. baumannii YQ4; assay: ATP leakage assay; type: cell-based, Acinetobacter baumannii; conditions: 1×MIC, 30 min
Method: ATP leakage assay was performed using the Enhanced ATP Assay Kit of Beyotime (S0027) according to the manufacturer's manual. Briefly, the log-phase culture of A. baumannii YQ4 was prepared, washed and suspended in PBS as above. This suspension was exposed to 16 μg/ml COG1410, 16 μg/ml polymyxin B and 32 μg/ml tigecycline, respectively and incubated at 37° C. for 30 min. The supernatant was harvested and used for measurement of ATP levels. 100 μl of supernatant was mixed with 100 μl working solution and the chemiluminescence was measured by Biotek Synergy H1 plate reader. Untreated sample was set as negative control. The experiments were performed in triplicate.

[6] = tested on: A. baumannii YQ4; conditions: COG1410 combined with polymyxin B
Method: The checkerboard method was performed to determine the fractional inhibitory concentration (FIC) index between COG1410 and other antimicrobials. Two-fold serial dilutions of antimicrobials and COG1410 were conducted and mixed in the 96-well plate. […] The experiments were conducted twice independently.

[7] = tested on: pan-drug resistant (PDR) Acinetobacter baumannii YQ4; conditions: A. baumannii YQ4, LB broth
[8] = tested on: PDR A. baumannii YQ4; assay: Dynamic time-kill assay in PBS; conditions: 30 min
Method: For dynamic time-kill assay, the overnight culture of A. baumannii YQ4 was transferred to fresh broth with initial OD600 0.01 and grown to the logarithmic phase. 1 ml culture was harvested, washed twice with 1× phosphate-buffered saline (PBS, pH7.4), containing 8 mM NaH2PO4, 2 mM KH2PO4, 2.6 mM KCl, 136 mM NaCl), and finally suspended in 1 ml PBS with OD600 0.5, which approximately corresponds to 1×10^8 CFU/ml. […] 100 μl aliquot was respectively taken at 0, 5, 10 and 30 min, serially diluted in PBS and plated on LB agar. The CFUs were counted after incubation at 37° C. for 18 h. […] Three independent experiments were performed.

[9] = tested on: A. baumanii YQ4; assay: Induction of resistance through serial passage; conditions: after 55 passages at sub-MIC
Method: The initial concentration of the tested compounds was set up as 1/32×MIC and doubled every 10 passages. The 1 ml of bacterial culture was stored in 10% sterile glycerol at −80° C. every 5 passages. The MIC value of collected cultures and original strains were measured through the micro-dilution method.

| Compound | MIC E. coli [2] [µg/mL] | MIC L. salivarius [3] [µg/mL] | MIC P. gingivalis [4] [µg/mL] | further results |
| --- | --- | --- | --- | --- |
| SAAP-148 |  |  |  | LC99.9 ([1]; 50% pooled plasma): 12.8 UM; LC99.9 ([1]; PBS): 1.6 µM |
| CC(=O)N[C@@H](CC(C)C)C(=O)N[C@@H](CCCNC(=N)N)C(=O)N[C@H](C(=O)N[C@@H](CCCNC(=N)N)C(=O)N[C@@H](CS)C(=O)N[C@@H](C)C(=O)N[C@@H](CO)C(=O)NC(C)(C)C(=O)N[C@@H](CC(C)C)C(=O)N[C@@H](CCCNC(=N)N)C(=O)N[C@@H](CCCCN)C(=O)N[C@@H](CC(C)C)C(=O)NC(C)(C)C(=O)N[C@@H](CCCCN)C(=O)N[C@@H](CCCNC(=N)N)C(=O)N[C@@H](CC(C)C)C(=O)N[C@@H](CC(C)C)C(N)=O)C(C)C [SEQ ID NO: 8, Acetyl-LRVRCAS-aib-LRKL-aib-KRLL-CONH2] (Ac-LRVRCAS[Aib]LRKL[Aib]KRLL-NH2) | 8 (≈ 3.93 µM) | 16 (≈ 7.86 µM) | 64 (≈ 31.4 µM) |  |
| CC(=O)N[C@H](CC(C)C)C(=O)N[C@H](CC(C)C)C(=O)N[C@H](CCCNC(=N)N)C(=O)N[C@H](CCCCN)C(=O)NC(C)(C)C(=O)N[C@H](CC(C)C)C(=O)N[C@H](CCCCN)C(=O)N[C@H](CCCNC(=N)N)C(=O)N[C@H](CC(C)C)C(=O)NC(C)(C)C(=O)N[C@H](CO)C(=O)N[C@H](C)C(=O)N[C@H](CC(C)C)C(=O)N[C@H](CCCNC(=N)N)C(=O)N[C@@H](C(=O)N[C@H](CCCNC(=N)N)C(=O)N[C@H](CC(C)C)C(N)=O)C(C)C [SEQ ID NO: 11, Acetyl-llrk-aib-lkrl-aib-salrvrl-amide] (Ac-[dL][dL][dR][dK][Aib][dL][dK][dR][dL][Aib][dS][dA][dL][dR][dV][dR][dL]-NH2) | 4 (≈ 1.95 µM) |  |  | MIC L. salivarius ([3]; 5% CO2, BHI broth): 16 µg/mL (≈ 7.82 µM); MIC P. gingivalis ([4]; anaerobic BHI broth): 8 µg/mL (≈ 3.91 µM) |
| CC(=O)N[C@H](CC(C)C)C(=O)N[C@H](CC(C)C)C(=O)N[C@H](CCCNC(=N)N)C(=O)N[C@H](CCCCN)C(=O)NC(C)(C)C(=O)N[C@H](CC(C)C)C(=O)N[C@H](CCCCN)C(=O)N[C@H](CCCCN)C(=O)N[C@H](CC(C)C)C(=O)NC(C)(C)C(=O)N[C@H](CO)C(=O)N[C@H](C)C(N)=O [SEQ ID NO: 5, Acetyl-llrk-Aib-lkkl-Aib-sa-amide] (Ac-[dL][dL][dR][dK][Aib][dL][dK][dK][dL][Aib][dS][dA]-NH2) | 16 (≈ 11.6 µM) |  | 16 (≈ 11.6 µM) |  |
| CC(C)C[C@@H]1NC(=O)[C@H](CC(C)C)NC(=O)[C@H](CCCNC(=N)N)NC(=O)[C@H](CCCCN)NC(=O)C(C)(C)NC(=O)[C@H](CC(C)C)NC(=O)[C@H](CCCCN)NC(=O)[C@H](CCCNC(=N)N)NC(=O)[C@H](CC(C)C)NC(=O)[C@@H](NC(=O)[C@H](CO)NC(=O)[C@H](C)NC(=O)c2ccccn2)CSSC[C@@H](C(N)=O)NC1=O [SEQ ID NO: 3, Picolinyl-AS-C-LRKL-aib-KRLL-C-amide] (Picolinoyl-ASCLRKL[Aib]KRLLC-NH2; disulfide 3-13) |  |  |  | MIC P. gingivalis ([4]; anaerobic BHI broth): 2 µg/mL (≈ 1.26 µM) |
| polymyxin B [reference compound] |  |  |  | ATP leakage [5]: released more ATP compared to untreated cells; working concentration in the combination [6]: 1 µg/mL; MIC [7]: 16 µg/mL; reduction in CFU ([8]; 1×MIC): 2 log; reduction in CFU ([8]; 5×MIC): 4 logs; increase of MIC [9]: 64 fold |
| CC(=O)N[C@@H](CC(C)C)C(=O)N[C@@H](CCCNC(=N)N)C(=O)N[C@H](C(=O)N[C@@H](CCCNC(=N)N)C(=O)N[C@@H](CC(C)C)C(=O)N[C@@H](C)C(=O)N[C@@H](CO)C(=O)NC(C)(C)C(=O)N[C@@H](CC(C)C)C(=O)N[C@@H](CCCCN)C(=O)N[C@@H](CCCCN)C(=O)N[C@@H](CC(C)C)C(=O)NC(C)(C)C(=O)N[C@@H](CCCCN)C(=O)N[C@@H](CCCNC(=N)N)C(=O)N[C@@H](CC(C)C)C(=O)N[C@@H](CC(C)C)C(N)=O)C(C)C [SEQ ID NO: 9, Acetyl-LRVRLAS-aib-LKKL-aib-KRLL-Amide] (Ac-LRVRLAS[Aib]LKKL[Aib]KRLL-NH2) | 4 (≈ 1.98 µM) | 4 (≈ 1.98 µM) | 8 (≈ 3.96 µM) |  |
| CC(=O)N[C@@H](CC(C)C)C(=O)N[C@@H](CC(C)C)C(=O)N[C@@H](CCCNC(=N)N)C(=O)N[C@@H](CCCCN)C(=O)NC(C)(C)C(=O)N[C@@H](CC(C)C)C(=O)N[C@@H](CCCCN)C(=O)N[C@@H](CCCNC(=N)N)C(=O)N[C@@H](CC(C)C)C(=O)NC(C)(C)C(=O)N[C@@H](CO)C(=O)N[C@@H](C)C(N)=O [SEQ ID NO: 4, Acetyl-LLRK-aib-LKRL-aib-SA-CONH2] (Ac-LLRK[Aib]LKRL[Aib]SA-NH2) | 8 (≈ 5.68 µM) | 8 (≈ 5.68 µM) | 32 (≈ 22.7 µM) |  |
| CC(=O)N[C@@H](CC(C)C)C(=O)N[C@@H](CC(C)C)C(=O)N[C@@H](CCCNC(=N)N)C(=O)N[C@@H](CCCCN)C(=O)NC(C)(C)C(=O)N[C@@H](CC(C)C)C(=O)N[C@@H](CCCNC(=N)N)C(=O)N[C@@H](CCCCN)C(=O)N[C@@H](CC(C)C)C(=O)NC(C)(C)C(=O)N[C@@H](CO)C(=O)N[C@@H](C)C(=O)N[C@@H](CO)C(=O)NC(C)(C)C(=O)N[C@@H](CC(C)C)C(=O)N[C@@H](CCCNC(=N)N)C(=O)N[C@@H](CCCCN)C(=O)N[C@@H](CC(C)C)C(=O)NC(C)(C)C(=O)N[C@@H](CCCCN)C(=O)N[C@@H](CCCNC(=N)N)C(=O)N[C@@H](CC(C)C)C(=O)N[C@@H](CC(C)C)C(N)=O [SEQ ID NO: 7, Acetyl-LLRK-aib-LRKL-aib-SAS-aib-LRKL-aib-KRLL-CONH2] (Ac-LLRK[Aib]LRKL[Aib]SAS[Aib]LRKL[Aib]KRLL-NH2) | 8 (≈ 2.98 µM) | 8 (≈ 2.98 µM) | 16 (≈ 5.95 µM) |  |
| CC(=O)N[C@@H](CC(C)C)C(=O)N[C@@H](CCCNC(=N)N)C(=O)N[C@H](C(=O)N[C@@H](CCCNC(=N)N)C(=O)N[C@@H](CC(C)C)C(=O)N[C@@H](C)C(=O)N[C@@H](CO)C(=O)N[C@@H](Cc1c[nH]cn1)C(=O)N[C@@H](CC(C)C)C(=O)N[C@@H](CCCNC(=N)N)C(=O)N[C@@H](CCCCN)C(=O)N[C@@H](CC(C)C)C(=O)N[C@@H](CCCNC(=N)N)C(=O)N[C@@H](CCCCN)C(=O)N[C@@H](CCCNC(=N)N)C(=O)N[C@@H](CC(C)C)C(=O)N[C@@H](CC(C)C)C(=O)N[C@@H](C)C(=O)N[C@@H](CO)C(=O)NC(C)(C)C(=O)N[C@@H](CC(C)C)C(=O)N[C@@H](CCCNC(=N)N)C(=O)N[C@@H](CCCCN)C(=O)N[C@@H](CC(C)C)C(=O)NC(C)(C)C(=O)N[C@@H](CCCCN)C(=O)N[C@@H](CCCNC(=N)N)C(=O)N[C@@H](CC(C)C)C(=O)N[C@@H](CC(C)C)C(N)=O)C(C)C [SEQ ID NO: 12, Acetyl-LRVRLASHLRKLRKRLLAS-aib-LRKL-aib-KRLL-CONH2] (Ac-LRVRLASHLRKLRKRLLAS[Aib]LRKL[Aib]KRLL-NH2) | 4 (≈ 1.14 µM) | 64 (≈ 18.2 µM) | 16 (≈ 4.55 µM) |  |
| CC(C)C[C@H](NC(=O)[C@H](CC(C)C)NC(=O)[C@H](CCCNC(=N)N)NC(=O)[C@H](CCCCN)NC(=O)C(C)(C)NC(=O)[C@H](CC(C)C)NC(=O)[C@H](CCCCN)NC(=O)[C@H](CCCNC(=N)N)NC(=O)[C@H](CC(C)C)NC(=O)C(C)(C)NC(=O)[C@H](CO)NC(=O)[C@H](C)NC(=O)c1ccccn1)C(N)=O [SEQ ID NO: 2, Picolinyl-AS-aib-LRKL-aib-KRLL-amide] (Picolinoyl-AS[Aib]LRKL[Aib]KRLL-NH2) | 32 (≈ 21.7 µM) | 8 (≈ 5.44 µM) | 2 to 32 |  |
| CC(=O)N[C@H](C)C(=O)N[C@H](CO)C(=O)NC(C)(C)C(=O)N[C@H](CC(C)C)C(=O)N[C@H](CCCNC(=N)N)C(=O)N[C@H](CCCCN)C(=O)N[C@H](CC(C)C)C(=O)NC(C)(C)C(=O)N[C@H](CCCCN)C(=O)N[C@H](CCCNC(=N)N)C(=O)N[C@H](CC(C)C)C(=O)N[C@H](CC(C)C)C(N)=O [SEQ ID NO: 6, Acetyl-as-aib-lrkl-aib-krll-amide] (Ac-[dA][dS][Aib][dL][dR][dK][dL][Aib][dK][dR][dL][dL]-NH2) | 8 (≈ 5.68 µM) | 8 (≈ 5.68 µM) | 8 (≈ 5.68 µM) |  |
